This passage reports IC90 and Ki results from patent USRE37781E1, “Substituted cyclic carbonyls and derivatives thereof useful as retroviral protease inhibitors” (DuPont Pharmaceuticals Company, priority 1991, dated 2002).

For one assay, the system named is HIV-1 (RF) in MT-2 cells. As to the kind of experiment: microbe, parasite or virus in culture. The format is cell-based. Particulars: HIV RNA assay, HIV-1 infected MT-2 cells; Table 2d. The procedure, abridged:
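HIV-1 laboratory strains (RF, MN, IIIB) grown in H9 cells in RPMI 1640 with 5% FCS; infections in MT-2 cells. Viral RNA quantified by hybridization with biotinylated gag/pol capture probes on streptavidin plates and alkaline phosphatase-conjugated reporter probes; BH10 gag-pol in vitro transcripts serve as RNA standards.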
In general, IC90 refers to the concentration at which the effect reaches the 90% level. Turning to `O=C1N(Cc2ccoc2)C(Cc2ccccc2)C(O)C(O)C(Cc2ccccc2)N1Cc1coc(CO)c1` (stereo not drawn) [Example 15FR], the IC90 result is recorded as “+++ (+++=<10 μg/mL)”.

The same assay, now with this note: Human immunodeficiency virus 1, MT2, 48 h, Table 2d; HIV RNA assay; read-out: IC90.
Turning to `N#Cc1cccc(CN2C(=O)N(Cc3cccnc3)C(Cc3ccccc3)C(O)C(O)C2Cc2ccccc2)c1` (stereo not drawn) [Example 15AR], the concentration for an effect of 90% (IC90) was less than 10 µg/mL.

Consider `O=C(COCc1ccccc1)c1cccc(CN2C(=O)N(Cc3cccc(C(=O)COCc4ccccc4)c3)C(Cc3ccccc3)C(O)C(O)C2Cc2ccccc2)c1` (stereo not drawn) [Example 15BI], for which the 90% effect concentration (IC90) is less than 10 µg/mL.

Turning to `C[Si](C)(C)CCOCn1cncc1-c1cccc(CN2C(=O)N(Cc3cccc(-c4cncn4COCC[Si](C)(C)C)c3)C(Cc3ccccc3)C(O)C(O)C2Cc2ccccc2)c1` (stereo not drawn) [Example 15BJ], the concentration for an effect of 90% (IC90) is less than 10 µg/mL.

Regarding `CN(C)S(=O)(=O)n1ccnc1-c1cccc(CN2C(=O)N(Cc3cccc(-c4nccn4S(=O)(=O)N(C)C)c3)C(Cc3ccccc3)C(O)C(O)C2Cc2ccccc2)c1` (stereo not drawn) [Example 15BM], the concentration for an effect of 90% (IC90) is less than 10 µg/mL.

As for `O=C1N(Cc2cccc(-c3cn[nH]c3)c2)C(Cc2ccccc2)C(O)C(O)C(Cc2ccccc2)N1Cc1cccc(-c2cn[nH]c2)c1` (stereo not drawn) [Example 15BN], the concentration for an effect of 90% (IC90) is less than 10 µg/mL.

`O=C1N(Cc2cccc(CO)c2)C(Cc2ccccc2)C(O)C(O)C(Cc2ccccc2)N1Cc1cccc(-c2cc[nH]n2)c1` (stereo not drawn) [Example 15BQ]: the concentration for an effect of 90% (IC90) is less than 10 µg/mL.

As to `O=C(NCCN1CCOCC1)c1cccc(CN2C(=O)N(Cc3cccc(-c4cc[nH]n4)c3)C(Cc3ccccc3)C(O)C(O)C2Cc2ccccc2)c1` (stereo not drawn) [Example 15BT], the IC90 was less than 10 µg/mL.

In the case of `N#Cc1cccc(CN2C(=O)N(Cc3cccc(-c4cc[nH]n4)c3)C(Cc3ccccc3)C(O)C(O)C2Cc2ccccc2)c1` (stereo not drawn) [Example 15BV], the IC90 is less than 10 µg/mL.

For `NC(=NO)c1cccc(CN2C(=O)N(Cc3cccc(-c4cc[nH]n4)c3)C(Cc3ccccc3)C(O)C(O)C2Cc2ccccc2)c1` (stereo not drawn) [Example 15BW], the IC90 is less than 10 µg/mL.

`O=C1NC(Cc2ccccc2)C(O)C(O)C(Cc2ccccc2)N1Cc1cccc(-c2cc[nH]n2)c1` (stereo not drawn) [Example 15BX]: the IC90 is less than 10 µg/mL.

On to `O=C1N(Cc2ccc(OCc3ccccc3)cc2)C(Cc2ccccc2)C(O)C(O)C(Cc2ccccc2)N1Cc1cccc(-c2cc[nH]n2)c1` (stereo not drawn) [Example 15BY], for which the IC90 is less than 10 µg/mL.

Take `O=C(NCc1cccnc1)c1cccc(CN2C(=O)N(Cc3cccc(-c4cc[nH]n4)c3)C(Cc3ccccc3)C(O)C(O)C2Cc2ccccc2)c1` (stereo not drawn) [Example 15BZ]: the concentration for an effect of 90% (IC90) was less than 10 µg/mL.

On to `O=C1N(Cc2cccc(-c3cc[nH]n3)c2)C(Cc2ccccc2)C(O)C(O)C(Cc2ccccc2)N1Cc1cccc([N+](=O)[O-])c1` (stereo not drawn) [Example 15CD], for which the IC90 is less than 10 µg/mL.

Still in this assay, the particulars now being: Human immunodeficiency virus 1, MT2, 48 h, Table 2d; class symbols; read-out: IC90.
For the compound `O=C1CCC(CN2C(=O)NC(Cc3ccccc3)C(O)C(O)C2Cc2ccccc2)CC1` (stereo not drawn) [Example 15VA], the IC90 was greater than 50 µg/mL.

Consider `O=C1N(CCCCCCO)C(Cc2ccccc2)C(O)C(O)C(Cc2ccccc2)N1CCCCCCCl` (stereo not drawn) [Example 15VE], for which the 90% effect concentration (IC90) was less than 10 µg/mL.

On to `O=C1NC(Cc2ccccc2)C(O)C(O)C(Cc2ccccc2)N1CCCCCO` (stereo not drawn) [Example 15VG], for which the concentration for an effect of 90% (IC90) is less than 10 µg/mL.

`O=C1N(CCCCCO)C(Cc2ccccc2)C(O)C(O)C(Cc2ccccc2)N1Cc1ccccc1` (stereo not drawn) [Example 15VI]: the IC90 was less than 10 µg/mL.

The target of the next assay is single-chain tethered dimer of HIV protease (Human immunodeficiency virus 1, UniProt P04585). Briefly: biochemical. The conditions noted are these: HIV protease inhibition, HPLC method; Table 2d; read-out: HPLC K1. Type of assay: biochemical. Further details: fused on or other part: A second copy of the same protease unit is joined to the first by a short peptide tether, giving one polypeptide.
With `O=C1N(Cc2ccoc2)C(Cc2ccccc2)C(O)C(O)C(Cc2ccccc2)N1Cc1coc(CO)c1` (stereo not drawn) [Example 15FR], the Ki was less than 10 nM.

Still in this assay, the particulars now being: read-out: HPLC K1; Table 2d; HIV protease inhibition, HPLC method.
With `N#Cc1cccc(CN2C(=O)N(Cc3cccnc3)C(Cc3ccccc3)C(O)C(O)C2Cc2ccccc2)c1` (stereo not drawn) [Example 15AR], the Ki is less than 10 nM.

`O=C(COCc1ccccc1)c1cccc(CN2C(=O)N(Cc3cccc(C(=O)COCc4ccccc4)c3)C(Cc3ccccc3)C(O)C(O)C2Cc2ccccc2)c1` (stereo not drawn) [Example 15BI]: the Ki is less than 10 nM.

As to `C[Si](C)(C)CCOCn1cncc1-c1cccc(CN2C(=O)N(Cc3cccc(-c4cncn4COCC[Si](C)(C)C)c3)C(Cc3ccccc3)C(O)C(O)C2Cc2ccccc2)c1` (stereo not drawn) [Example 15BJ], the Ki is less than 10 nM.

Regarding `CN(C)S(=O)(=O)n1ccnc1-c1cccc(CN2C(=O)N(Cc3cccc(-c4nccn4S(=O)(=O)N(C)C)c3)C(Cc3ccccc3)C(O)C(O)C2Cc2ccccc2)c1` (stereo not drawn) [Example 15BM], the Ki lay in the range of 10 to 1000 nM.

Take `O=C1N(Cc2cccc(-c3cn[nH]c3)c2)C(Cc2ccccc2)C(O)C(O)C(Cc2ccccc2)N1Cc1cccc(-c2cn[nH]c2)c1` (stereo not drawn) [Example 15BN]: the Ki is less than 10 nM.

For the compound `O=C1N(Cc2cccc(CO)c2)C(Cc2ccccc2)C(O)C(O)C(Cc2ccccc2)N1Cc1cccc(-c2cc[nH]n2)c1` (stereo not drawn) [Example 15BQ], the Ki is less than 10 nM.

Regarding `O=C(NCCN1CCOCC1)c1cccc(CN2C(=O)N(Cc3cccc(-c4cc[nH]n4)c3)C(Cc3ccccc3)C(O)C(O)C2Cc2ccccc2)c1` (stereo not drawn) [Example 15BT], the Ki is less than 10 nM.

In the case of `N#Cc1cccc(CN2C(=O)N(Cc3cccc(-c4cc[nH]n4)c3)C(Cc3ccccc3)C(O)C(O)C2Cc2ccccc2)c1` (stereo not drawn) [Example 15BV], the Ki is less than 10 nM.

For the compound `NC(=NO)c1cccc(CN2C(=O)N(Cc3cccc(-c4cc[nH]n4)c3)C(Cc3ccccc3)C(O)C(O)C2Cc2ccccc2)c1` (stereo not drawn) [Example 15BW], the Ki is less than 10 nM.

For the compound `O=C1NC(Cc2ccccc2)C(O)C(O)C(Cc2ccccc2)N1Cc1cccc(-c2cc[nH]n2)c1` (stereo not drawn) [Example 15BX], the Ki was less than 10 nM.

Take `O=C1N(Cc2ccc(OCc3ccccc3)cc2)C(Cc2ccccc2)C(O)C(O)C(Cc2ccccc2)N1Cc1cccc(-c2cc[nH]n2)c1` (stereo not drawn) [Example 15BY]: the Ki was less than 10 nM.

As to `O=C(NCc1cccnc1)c1cccc(CN2C(=O)N(Cc3cccc(-c4cc[nH]n4)c3)C(Cc3ccccc3)C(O)C(O)C2Cc2ccccc2)c1` (stereo not drawn) [Example 15BZ], the Ki is less than 10 nM.

On to `O=C1N(Cc2cccc(-c3cc[nH]n3)c2)C(Cc2ccccc2)C(O)C(O)C(Cc2ccccc2)N1Cc1cccc([N+](=O)[O-])c1` (stereo not drawn) [Example 15CD], for which the Ki was less than 10 nM.

The assay is the same for the next values; noted with them: read-out: HPLC K1; Table 2d; class symbols.
For the compound `O=C1CCC(CN2C(=O)NC(Cc3ccccc3)C(O)C(O)C2Cc2ccccc2)CC1` (stereo not drawn) [Example 15VA], the Ki fell in the range of 10 to 1000 nM.

For `O=C1N(CCCCCCO)C(Cc2ccccc2)C(O)C(O)C(Cc2ccccc2)N1CCCCCCCl` (stereo not drawn) [Example 15VE], the Ki was in the range of 10 to 1000 nM.

In the case of `O=C1NC(Cc2ccccc2)C(O)C(O)C(Cc2ccccc2)N1CCCCCO` (stereo not drawn) [Example 15VG], the Ki is less than 10 nM.

In the case of `O=C1N(CCCCCO)C(Cc2ccccc2)C(O)C(O)C(Cc2ccccc2)N1Cc1ccccc1` (stereo not drawn) [Example 15VI], the Ki was less than 10 nM.
